Reference: patent US9393204B2, “Methods and compositions employing bicifadine for treating disability or functional impairment associated with acute pain, chronic pain, or neuropathic disorders” (EBI Life Sciences, Inc., priority 2002, dated 2016)
Entries after “also recorded” stand apart in the source; their conditions may differ. Structures can show the parent of a compound that is named as a salt.

Assays:
[1] = Pharmacokinetics of bicifadine SR tablets in acute dental pain study; format: in vivo, human; conditions: 90 patients
Protocol: (§1) Healthy adult male and female human subjects who underwent surgical extraction of two or more impacted third molars were enrolled in the study. Following cessation of the local anesthetic effect and onset of pain of at least 40 mm intensity on the 100 mm VAS, patients were randomized to into 1 of the 5 treatment arms (n˜108 per arm) and remained in the clinic for the subsequent 12 hours of the study. The study subjects were randomized to receive either a single dose of: 200 mg, 400 mg or 600 mg bicifadine SR tablets, Tramadol 100 mg, or Placebo. Analgesia ratings were obtained over a 12 h post-dosing period. Rescue medication (acetaminophen) was available, but no analgesia measures were taken after the use of rescue medication by a given patient. A subset of 150 patients provided blood samples at 0.5 hr and hourly intervals following dosing with study medication for the purpose of determining bicifadine levels (n=90).
Plasma time course profiles were determined in a subset of 30 subjects (15 male/15 female) from each treatment group.

acute pain = assay: Acute pain studies (acute dental pain and bunionectomy pain); format: in vivo, human; conditions: unit doses of about 200 mg, 400 mg or 600 mg
[2] = test system: chronic low back pain (CLBP); assay: Chronic low back pain (CLBP) study, bi-daily dosing; format: in vivo, human
Protocol: The present study evaluated the therapeutic efficacy of a reduced dosing regimen employing bicifadine in a bi-daily (BID) dosing protocol to treat chronic low back pain (CLBP). More than 800 study subjects were recruited in this study, and a subset of these subjects was administered 400 mg of a sustained release oral dosage form (formula M; example 15) of bicifadine BID to evaluate the long-term analgesic efficacy of bicifadine for treating CLBP. […] The following outcome measures were assessed in the study:
Inclusion criteria for study subjects, as selected for other studies herein, included the following: Subjects were at least 18 years of age. If subject was female and of childbearing potential, the subject had to have a negative serum pregnancy test during the screening period. Subjects were required to have […] during the screening period.
Other exclusionary criteria in this study included: Low back pain due to acute fracture, infection, severe osteoporosis, malignancy, marked scoliosis, or severe congenital malformation such as spina bifida; Receipt of an epidural injection of corticosteroid in the lower back within 1 month prior to the baseline visit; Use of any antidepressant for pain or sleep (including SSRIs or SNRIs), anti-epileptic, or muscle relaxant, or receipt of transcutaneous electrical nerve stimulation, chiropractic adjustment, or acupuncture within 3 weeks prior to the baseline visit; Use of any antidepressant (including SSRIs or SNRIs) for depression within 3 months prior to the baseline visit; Use of any opioid analgesic or benzodiazepine (or other sedative-hypnotic) within 2 weeks prior to the baseline visit; Use of any NSAID (except aspirin<81 mg per day or <325 mg every other day for cardiac prophylaxis and except ibuprofen) or any non-opioid analgesic (except acetaminophen) within 1 week, or acetaminophen or ibuprofen within 60 hours, prior to the baseline visit; Active malignancy of any type or history of a malignancy within 5 years prior to the first dose of study medication (patients with treated localized basal or squamous cell carcinoma of the skin within 5 years are permitted); Active GI disease (including any GI surgery that, in the Investigator's opinion, would interfere with the absorption of the study medication), or a chronic or acute renal or hepatic disorder; Mental instability, known substance abuse, history of clinically significant depression or alcoholism, or incapacity of being compliant with the requirements of the study; Any clinically significant cardiovascular, renal, endocrine, hepatic, immunologic, respiratory, neurologic, gastrointestinal, psychiatric, or hematologic disease, or any underlying serious medical condition that would preclude patient's participation in the study; and, other standard, relevant exclusion criteria.
Patients who qualified for enrollment into the study completed the PSR test, Roland-Morris Disability Questionnaire, Short Form McGill Pain Questionnaire (SF-MPQ) and the SF-36 quality of life survey at the baseline visit and at various time points throughout the study.
Study subjects were randomized on a 25:6 basis to receive either bicifadine 400 mg BID or SOC treatment, respectively. SOC treatment was provided as any appropriate pharmacological analgesic treatment selected by the investigator based on the subjects' baseline and ongoing presentation. Subjects were permitted to reduce the dose for tolerability reasons, first to bicifadine 300 mg BID, and then, if necessary, to bicifadine 200 mg BID.
Summary statistics, including observed means and standard deviations along with mean change from baseline were summarized by visit for each outcome measure. Incidence of discontinuation due to lack of efficacy and its 95% confidence interval were likewise calculated. The median and its 95% confidence interval and a Kaplan-Meier plot were provided for Time to Discontinuation due to lack of efficacy and other reasons. […]

acute inflammatory pain = conditions: animal model of acute inflammatory pain; cited from earlier work
[3] = test system: post-operative dental pain; assay: Analgesic efficacy of bicifadine SR tablets in post-operative dental pain study; format: in vivo, human
Protocol: These conclusions are further substantiated by the use of rescue medication by subjects in the Stem et al. acute dental pain studies. Table 5 below summarizes information on the use of rescue medication for patients who took rescue medication among the various treatment groups in the clinical trial reported by Stern et al. (id.) A nonparametric analysis (Median Test) was conducted to evaluate the median latency to rescue medication.
Survival analysis (Kaplan-Meier method, 95% confidence) was performed to compare the treatment groups with regard to time-to-rescue medication. […] The analysis yielded a statistically significant difference among the treatment groups (Log-Rank test, Chi-square=26.9, df=4, P=0.0001).
as §1
The main efficacy endpoints utilized in the overall study (n˜540) were the individual assessment of Pain Severity and Pain Relief scores at a given time point; the derived scores (PID, PRID, SPID, SPRID, TOTPAR), and the global improvement. The last observation carried forward (LOCF) approach was used to estimate change over time for those patients who used rescue medication. For the full study efficacy evaluations, one-way analysis of covariance with baseline pain severity as a covariate was applied. The global tests which included all treatment arms were followed by post-hoc comparisons of the individual treatment arms vs. placebo.
The relationship between mean pain relief ratings (PRR) and mean plasma bicifadine levels was determined at three exemplary plasma level ranges: between 0-500 ng/ml, 500-1000 ng/ml, and >1000 ng/ml, respectively. A clear positive relationship was observed across 3 ranges of bicifadine levels. In particular, bicifadine plasma concentrations in the >1000 ng/ml range were associated with a PR score approximately 3 times as high as plasma concentrations in the 0-500 ng/ml range (p<0.001, Hierarchical Linear Model analysis).
The probability of treatment response as a function of bicifadine blood concentration levels was also determined. Association between the probability of treatment response and bicifadine blood concentration levels was investigated with the widely known Generalized Estimating Equation (GEE) approach. For the purpose of the GEE analyses described here, bicifadine blood concentration was treated as a continuous independent (predictor) variable. Treatment (analgesic) response served as a dichotomous (yes, no) dependent variable in the GEE model. In particular, treatment response for each individual patient for each of the time points was defined as a Pain Relief Rating of 3 or more (range 0-4).

[4] = test system: acute, nociceptive pain following dental surgery; conditions: cited from earlier work
neuropathic pain = assay: Spinal nerve ligation (Chung) model; conditions: in vivo
[5] = patients with low back pain and radiating pain

SMILES: Cc1ccc(C23CNCC2C3)cc1 (racemic) [Bicifadine HCl, (±)-1-(4-methylphenyl)-3-azabicyclo[3.1.0]hexane hydrochloride]
- relationship between bicifadine dose and AUC [1]: clear dose proportional relationship
- period of analgesic efficacy for effectively treating acute pain (acute pain): up to 6 hours
- therapeutic efficacy from pain relief data (VAS) ([2]; BID dosing, 4.5 month period, versus SOC): comparable to that of standard of care (SOC) treatment
- improved functional/activity results ([2]; BID dosing, versus SOC): comparable to those observed among SOC-treated subjects
- VAS pain scores compared to placebo ([2]; baseline RDQ score greater than 17): significantly reduced
- subjects with at least a 50% reduction in VAS scores, relative to placebo ([2]; baseline RDQ score greater than 17, hydrochloride): at least three times as many; also recorded: roughly three times the percentage
- percentage of subjects with 50% or greater reduction in RDQ scores, relative to placebo (less than 15%) ([2]; baseline RDQ>17, 400-800 mg/day): roughly twice this percentage
- disability scores on the RDQ versus placebo ([2]; baseline RDQ>17, 400-800 mg/day, hydrochloride): significant activity for reversing disabilities and enhancing functional/activity performance; also recorded: significantly decreased
- improvement in VAS pain score compared to placebo [2, 5]: 11 mm
- responsiveness to treatment versus patients with only localized back pain [2, 5]: two times more responsive
- activity in the Randall-Selitto test (acute inflammatory pain): potent and active
- SPRID-6 and other derived analgesia scores versus placebo ([3]; 200 mg single dose): better than placebo on some measures
- SPRID-6 and other derived analgesia scores versus placebo ([3]; 400 mg single dose): statistically superior to placebo
- SPRID-6 and other derived analgesia scores versus placebo ([3]; 600 mg single dose): statistically superior to placebo
- drug levels associated with significant analgesic efficacy ([3]; acute dental pain): 500 to 1000 ng/mL
- minimally effective dose ([3]; acute dental pain): 200 mg
- plasma bicifadine levels associated with the greatest pain relief ([3]; acute dental pain): > 1000 ng/mL
- plasma drug levels not associated with significant analgesic effects ([3]; acute dental pain): ≤ 500 ng/mL
- Odds Ratio of Response (Pain Relief Rating of 3 or more) ([3]; for an increase of 500 ng/ml in bicifadine blood levels, GEE, p=0.006): 1.59
- PR score at plasma concentrations >1000 ng/ml relative to 0-500 ng/ml range ([3]; p<0.001, Hierarchical Linear Model): approximately 3 times
- efficacy relative to codeine and tramadol [4]: as effective as codeine and tramadol
- efficacy in the spinal nerve ligation (Chung) model (neuropathic pain): effective

SMILES: COc1cccc(C2(O)CCCCC2CN(C)C)c1 (centres unmarked) [tramadol, reference compound]
- use of rescue medication versus placebo (time-to-rescue, Log-Rank) ([3]; 100 mg, P=0.0001): significantly less likely to use rescue medication
